In patent publication US20220169654A1, “New Organic Compounds” (Servier Pharmaceuticals LLC, priority 2020, published 2022):
pIC50: −log10 of the molar value.

Columns and labels:
MAT2A homodimer = biological target: T1, MAT2A homodimer (Homo sapiens, UniProt P31153); experiment: MAT2A inhibition (biochemical, liberated phosphate, PiColorLock Gold); conditions: recombinant MAT2A homodimer; IC50 bin with Max Inh.; read-out: Enzyme Inhibition Bin
T1 construct: inferred from Ni sepharose purification with imidazole elution; made in house; host or cells: Sf9 insect cells, baculovirus (Bac to Bac, pFASTBAC1)
Procedure, shortened: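 Baculovirus/Sf9-expressed, Ni-purified MAT2A (4 μg/mL) preincubated with compound 60 min at 25 °C in Tris pH 8.0/KCl/MgCl2 buffer. Reaction started with 500 μM ATP and 400 μM L-methionine (substrate-mix concentrations), run 60 min at 25 °C. Phosphate measured colorimetrically against a phosphate standard curve to give IC50.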

[1] = system: SAM in HCT116 human colon carcinoma cell line with MTAP gene deleted (MTAP −/−); experiment: Cellular assay of target engagement (SAM), LC-MS/MS, 72 hrs; format: cell-based; conditions: HCT-116, IC50 bin with Max Inh., read-out: Cell 72 h SAM Inhibition (MTAP −/−)
Procedure, shortened: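 MTAP-deleted HCT116 cells plated 24 h, then given 10-point 3-fold dilutions for 72 hrs at 37° C. Intracellular SAM extracted in cold 80% methanol with 1M acetic acid and d3-SAM standard, quantified by LC-MS/MS (MRM m/z 399.2→250.1); IC50 derived.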

HCT116 MTAP−/− = experiment: Inhibition of cellular proliferation, 4 days, Cell Titer Glo, HCT116 MTAP−/−; format: cell-based; conditions: Homo sapiens, HCT-116, 96 h, IC50 bin with Max Inh., read-out: 4 Day Relative Growth Inhibition (MTAP −/−)
Procedure, shortened: (§1)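 Isogenic HCT116 pair differing only in MTAP status, plated 24 h before treatment with 10-point 3-fold dilutions; 4 days at 37° C./5% CO2. Cell Titer Glo luminescence, blank-subtracted and normalised to 0.2% DMSO control, gives percentage proliferation vs log molar concentration for IC50.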

HCT116 MTAP+/+ = experiment: Inhibition of cellular proliferation, 4 days, Cell Titer Glo, HCT116 MTAP+/+; format: cell-based; conditions: Homo sapiens, HCT-116, 96 h, IC50 bin with Max Inh., read-out: 4 Day Relative Growth Inhibition (MTAP +/+)
Procedure, shortened: as §1

T1 sequence (P31153 whole entry): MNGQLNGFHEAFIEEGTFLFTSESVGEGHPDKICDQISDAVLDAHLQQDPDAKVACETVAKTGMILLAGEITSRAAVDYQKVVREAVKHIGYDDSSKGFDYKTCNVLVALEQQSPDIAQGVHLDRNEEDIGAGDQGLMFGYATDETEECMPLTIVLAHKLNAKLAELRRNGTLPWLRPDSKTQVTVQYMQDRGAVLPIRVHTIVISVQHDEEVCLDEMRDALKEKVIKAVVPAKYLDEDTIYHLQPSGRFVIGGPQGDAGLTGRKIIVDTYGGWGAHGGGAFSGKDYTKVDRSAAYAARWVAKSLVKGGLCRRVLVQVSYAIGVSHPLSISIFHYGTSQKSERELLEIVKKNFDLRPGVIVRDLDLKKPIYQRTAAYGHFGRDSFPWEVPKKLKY

| SMILES | pIC50 (MAT2A homodimer) | pIC50 [1] | pIC50 (HCT116 MTAP−/−) | pIC50 (HCT116 MTAP+/+) |
| --- | --- | --- | --- | --- |
| Cn1cc2cc(-n3nc4[nH]c(=O)n(CC5CC5)c4c(-c4ccc(Cl)cc4)c3=O)ccc2n1 [Example 205, 4-(4-chlorophenyl)-5-(cyclopropylmethyl)-2-(2-methyl-2H-indazol-5-yl)-2,7-dihydro-3H-imidazo[4,5-c]pyridazine-3,6(5H)-dione] | > 7.00 | > 7.00 | 6.00 to 7.00 | < 6.00 |
| [2H]C([2H])([2H])Oc1ccc(-c2c(=O)n(-c3ccc4nn(C)cc4c3)nc3[nH]c(=O)n(CC4CC4)c23)cc1 [Example 206, 5-(cyclopropylmethyl)-4-(4-(methoxy-d3)phenyl)-2-(2-methyl-2H-indazol-5-yl)-2,7-dihydro-3H-imidazo[4,5-c]pyridazine-3,6(5H)-dione] | > 7.00 | > 7.00 | 6.00 to 7.00 | < 6.00 |
| Cn1cc2cc(-n3nc4nnn(CC5CC5)c4c(-c4ccc(OC(F)F)cc4)c3=O)ccc2n1 [Example 208, 1-(cyclopropylmethyl)-7-(4-(difluoromethoxy)phenyl)-5-(2-methyl-2H-indazol-5-yl)-1,5-dihydro-6H-[1,2,3]triazolo[4,5-c]pyridazin-6-one] | > 7.00 | > 7.00 | 6.00 to 7.00 | 6.00 to 7.00 |
| Cc1nn(CC2CC2)c2c(-c3ccc(OC(F)F)cc3)c(=O)n(-c3ccc4nn(C)cc4c3)nc12 [Example 212, 1-(cyclopropylmethyl)-7-(4-(difluoromethoxy)phenyl)-3-methyl-5-(2-methyl-2H-indazol-5-yl)-1,5-dihydro-6H-pyrazolo[4,3-c]pyridazin-6-one] | > 7.00 | > 7.00 | > 7.00 | > 7.00 |
| COc1ccc(-c2c(=O)n(-c3ccc4nn(C)cc4c3)nc3c(C)nn(CC4CC4)c23)cc1 [Example 214, 1-(cyclopropylmethyl)-7-(4-methoxyphenyl)-3-methyl-5-(2-methyl-2H-indazol-5-yl)-1,5-dihydro-6H-pyrazolo[4,3-c]pyridazin-6-one] | > 7.00 | > 7.00 | > 7.00 | 6.00 to 7.00 |
| [2H]C([2H])([2H])Oc1ccc(-c2c(=O)n(-c3ccc4nn(C)cc4c3)nc3c(C)nn(CC4CC4)c23)cc1 [Example 216, 1-(cyclopropylmethyl)-7-(4-(methoxy-d3)phenyl)-3-methyl-5-(2-methyl-2H-indazol-5-yl)-1,5-dihydro-6H-pyrazolo[4,3-c]pyridazin-6-one] | > 7.00 | > 7.00 | > 7.00 | 6.00 to 7.00 |
| Cn1cc(-n2nc3ccn(CC4CC4)c3c(-c3ccc(OC(F)F)cc3)c2=O)ccc1=O [Example 223, 5-(cyclopropylmethyl)-4-(4-(difluoromethoxy)phenyl)-2-(1-methyl-6-oxo-1,6-dihydropyridin-3-yl)-2,5-dihydro-3H-pyrrolo[3,2-c]pyridazin-3-one] | > 7.00 | > 7.00 | 6.00 to 7.00 | 6.00 to 7.00 |
| O=c1c(-c2ccc(OC(F)F)cc2)c2c(ccn2CC2CC2)nn1-c1ccc2ncsc2c1 [Example 224, 2-(benzo[d]thiazol-6-yl)-5-(cyclopropylmethyl)-4-(4-(difluoromethoxy)phenyl)-2,5-dihydro-3H-pyrrolo[3,2-c]pyridazin-3-one] | > 7.00 | > 7.00 | > 7.00 | 6.00 to 7.00 |
| O=c1c(-c2ccc(OC(F)F)cc2)c2c(ccn2CC2CC2)nn1-c1ccc2ncccc2c1 [Example 225, 5-(cyclopropylmethyl)-4-(4-(difluoromethoxy)phenyl)-2-(quinolin-6-yl)-2,5-dihydro-3H-pyrrolo[3,2-c]pyridazin-3-one] | > 7.00 | > 7.00 | > 7.00 | 6.00 to 7.00 |

Other lines, results leading:

| pIC50 (MAT2A homodimer) | pIC50 [1] | pIC50 (HCT116 MTAP−/−) | pIC50 (HCT116 MTAP+/+) | SMILES |
| --- | --- | --- | --- | --- |
| > 7.00 | > 7.00 | > 7.00 | < 6.00 | Cn1cc2cc(-n3nc4[nH]c(=O)n(CC5CC5)c4c(-c4ccc(C5CC5)cc4)c3=O)ccc2n1 [Example 204, 5-(cyclopropylmethyl)-4-(4-cyclopropylphenyl)-2-(2-methyl-2H-indazol-5-yl)-2,7-dihydro-3H-imidazo[4,5-c]pyridazine-3,6(5H)-dione] |
| > 7.00 | > 7.00 | 6.00 to 7.00 | < 6.00 | Cc1ccc(-c2c(=O)n(-c3ccc4nn(C)cc4c3)nc3[nH]c(=O)n(CC4CC4)c23)cn1 [Example 207, 5-(cyclopropylmethyl)-2-(2-methyl-2H-indazol-5-yl)-4-(6-methylpyridin-3-yl)-2,7-dihydro-3H-imidazo[4,5-c]pyridazine-3,6(5H)-dione] |
| > 7.00 | 6.00 to 7.00 | 6.00 to 7.00 | < 6.00 | Cn1cc2cc(-n3nc4nnn(CC5CC5)c4c(-c4ccc(C5CC5)cc4)c3=O)ccc2n1 [Example 209, 1-(cyclopropylmethyl)-7-(4-cyclopropylphenyl)-5-(2-methyl-2H-indazol-5-yl)-1,5-dihydro-6H-[1,2,3]triazolo[4,5-c]pyridazin-6-one] |
| 6.00 to 7.00 | < 6.00 | 6.00 to 7.00 | < 6.00 | Cn1cc2cc(-n3nc4nnn(CC5CC5)c4c(-c4ccc(C5CC5)nc4)c3=O)ccc2n1 [Example 210, 1-(cyclopropylmethyl)-7-(6-cyclopropylpyridin-3-yl)-5-(2-methyl-2H-indazol-5-yl)-1,5-dihydro-6H-[1,2,3]triazolo[4,5-c]pyridazin-6-one] |
| > 7.00 | > 7.00 | > 7.00 | < 6.00 | Cc1nn(CC2CC2)c2c(-c3ccc(C4CC4)nc3)c(=O)n(-c3ccc4nn(C)cc4c3)nc12 [Example 211, 1-(cyclopropylmethyl)-7-(6-cyclopropylpyridin-3-yl)-3-methyl-5-(2-methyl-2H-indazol-5-yl)-1H,5H,6H-pyrazolo[4,3-c]pyridazin-6-one] |
| > 7.00 | > 7.00 | > 7.00 | < 6.00 | Cc1nn(CC2CC2)c2c(-c3ccc(C4CC4)cc3)c(=O)n(-c3ccc4nn(C)cc4c3)nc12 [Example 213, 1-(cyclopropylmethyl)-7-(4-cyclopropylphenyl)-3-methyl-5-(2-methyl-2H-indazol-5-yl)-1,5-dihydro-6H-pyrazolo[4,3-c]pyridazin-6-one] |
| > 7.00 | > 7.00 | > 7.00 | 6.00 to 7.00 | Cc1nn(CC2CC2)c2c(-c3ccc(Cl)cc3)c(=O)n(-c3ccc4nn(C)cc4c3)nc12 [Example 215, 7-(4-chlorophenyl)-1-(cyclopropylmethyl)-3-methyl-5-(2-methyl-2H-indazol-5-yl)-1,5-dihydro-6H-pyrazolo[4,3-c]pyridazin-6-one] |
| > 7.00 | > 7.00 | > 7.00 | < 6.00 | Cc1ccc(-c2c(=O)n(-c3ccc4nn(C)cc4c3)nc3c(C)nn(CC4CC4)c23)cn1 [Example 217, 1-(cyclopropylmethyl)-3-methyl-5-(2-methyl-2H-indazol-5-yl)-7-(6-methylpyridin-3-yl)-1,5-dihydro-6H-pyrazolo[4,3-c]pyridazin-6-one] |
| > 7.00 | > 7.00 | > 7.00 | 6.00 to 7.00 | Cn1cc2cc(-n3nc4cnn(CC5CC5)c4c(-c4ccc(OC(F)F)cc4)c3=O)ccc2n1 [Example 218, 1-(cyclopropylmethyl)-7-(4-(difluoromethoxy)phenyl)-5-(2-methyl-2H-indazol-5-yl)-1,5-dihydro-6H-pyrazolo[4,3-c]pyridazin-6-one] |
| > 7.00 | 6.00 to 7.00 | 6.00 to 7.00 | 6.00 to 7.00 | Cn1cc2cc(-n3nc4cnn(CC5CC5)c4c(-c4ccc(C5CC5)nc4)c3=O)ccc2n1 [Example 219, 1-(cyclopropylmethyl)-7-(6-cyclopropylpyridin-3-yl)-5-(2-methyl-2H-indazol-5-yl)-1,5-dihydro-6H-pyrazolo[4,3-c]pyridazin-6-one] |
| > 7.00 | > 7.00 | > 7.00 | 6.00 to 7.00 | [2H]C([2H])([2H])Oc1ccc(-c2c(=O)n(-c3ccc4nn(C)cc4c3)nc3cnn(CC4CC4)c23)cc1 [Example 220, 1-(cyclopropylmethyl)-7-(4-(methoxy-d3)phenyl)-5-(2-methyl-2H-indazol-5-yl)-1,5-dihydro-6H-pyrazolo[4,3-c]pyridazin-6-one] |
| > 7.00 | > 7.00 | > 7.00 | 6.00 to 7.00 | Cn1cc2cc(-n3nc4cnn(CC5CC5)c4c(-c4ccc(Cl)cc4)c3=O)ccc2n1 [Example 221, 7-(4-chlorophenyl)-1-(cyclopropylmethyl)-5-(2-methyl-2H-indazol-5-yl)-1,5-dihydro-6H-pyrazolo[4,3-c]pyridazin-6-one] |
| > 7.00 | 6.00 to 7.00 | 6.00 to 7.00 | < 6.00 | Cc1ccc(-c2c(=O)n(-c3ccc4nn(C)cc4c3)nc3cnn(CC4CC4)c23)cn1 [Example 222, 1-(cyclopropylmethyl)-5-(2-methyl-2H-indazol-5-yl)-7-(6-methylpyridin-3-yl)-1,5-dihydro-6H-pyrazolo[4,3-c]pyridazin-6-one] |
